8 molecules from ChEMBL document CHEMBL1201862, “PubChem BioAssay data set” (2004) can be followed below.

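Interpolation was linear, between the two tested concentrations surrounding the appropriate level; five concentrations were tested over 48 hours in 96-well plates. At the GI50, growth is halved.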 Active and inactive are the calls of the source. No stated cut-off is given here; in the data, active = GI50 up to about 1.1 µM and inactive = higher. Where only a bound is given, the exact number is not on record here.

Some test systems named below: RXF 631; LXFL 529; MDA-MB-231; MDA-MB-435; Hs-578T; BT-549; DU-145; MDA-N.
Experiment in all cases: NCI-60 cell line screen, 48 h

Consider `CCCCCCCCCCCCCCCC(=O)OC1C(O)C(CO)OC(OC)C1NC(=O)N(CCCl)N=O` (configuration not stated), for which the results for the GI50 in the test with RXF 631 and in the test on LXFL 529 were 16.8 µM (inactive) and 12.6 µM (inactive), respectively.
Turning to `NS(=O)(=O)C1CCCCC1C(=O)NNC(=O)C(=O)Nc1nnc(S)[nH]1` (configuration not stated), the GI50 with LXFL 529 is > 100 µM (inactive).
Same read-out and setting: for `O=[PH](O)c1cccs1` the value was > 100 µM (inactive).
`COc1ccc(N2CN(C)CSC2=S)cc1`: the GI50 was > 100 µM (inactive) in the test on MDA-MB-231; 43.3 µM (inactive) in the test with MDA-MB-435; > 100 µM (inactive) with Hs-578T; 75.5 µM (inactive) in the test with BT-549; > 100 µM (inactive) in the test on DU-145.
Regarding `CO/N=C1/c2sccc2[C@H](NC(=O)C(F)(F)F)[C@@H]1O`, the GI50 with MDA-MB-231, in the test with MDA-MB-435, in the test with Hs-578T, in the test on MDA-N, in the test on BT-549 and with DU-145 was > 100 µM (inactive) throughout.
With `Cc1ccc2c(=O)c3ccccc3sc2c1`, the GI50 in the test on LXFL 529 was > 100 µM (inactive).
As to `O=C(N/N=C\c1cccc2ccccc12)Nc1ccccc1`, the GI50 in the test on MDA-MB-435, in the test with Hs-578T, in the test on MDA-N, in the test on BT-549 and with DU-145 was > 100 µM (inactive) each time.
Regarding `O=C1CCC(c2ccc(Cl)cc2)=NN1c1nsc2ccccc12`, in the test on LXFL 529, the GI50 is 26.8 µM (inactive).
